From US20080269279A1, “Substituted furo[2,3-B] pyridine derivatives as cannabinoid-1 receptor modulators” (priority 2007, published 2008)
Structures can show the parent of a compound that is named as a salt.

Tested on: human GABA α1β3β2 receptors
Test: GABAa, 3H-muscimol binding assay
Settings: activity at 10 μM as percentage of activity of control compound P18 at 10 μM (increase of 3H-muscimol binding)
Procedure: Membranes from recombinant Ltk cells expressing human GABA α1β3β2 receptors were suspended in an ice-cold solution of 100 mM KCl, 10 mM KH2PO4, adjusted to pH=7.4 with 1 M KOH. Tritiated muscimol (PerkinElmer, Wellesley, Mass.) at a concentration of 2 nM, and serial five-fold dilutions of test compounds at 10 μM, 2.0 μM, 400 nM, 80 nM, 16 nM, 3.2 nM, 0.64 nM and 0.13 nM were mixed in 96-well plates containing 200 μL of membrane suspension. Cold muscimol and compound P18 were used as negative and positive controls respectively. The assay mixture was incubated at 4° C. for 2 hours, then harvested on GF/C filter plates and washed with ice-cold 50 mM Tris-Ci buffer. The filter plates were dried and counted in a Wallac MicroBeta® Trilux detector (Model 1450-030; PerkinElmer, Wellesley, Mass.), and the data were downloaded and analyzed using Prism 3.0. The activity of compound P18 at 10 μM was used as reference for the test compounds, and it was expressed as increasing ^3H-muscimol binding by 100%, whereas cold muscimol at 2 μM antagonized ^3H-muscimol binding by 100%. The tested compound's activity at 10 μM was expressed as a percentage of compound P18's activity at 10 μM.
As a reference, the parent compound (the compound not substituted with a R^4 heteroaryl, such as pyrazole or 1,2,4-oxadiazole, as indicated below) is also shown with its Gamma Amino Butyric Acid (GABA) Receptor activity. […] As a result, the compounds of the present invention in which R^4 is a heteroaryl, such as pyrazole or 1,2,4-oxadiazole, have the unexpected benefits of minimizing off target activity at the GABA receptor.
Note: % GABA is defined as the GABA activity of the indicated compound expressed as a percentage of the activity of control compound P18. NA=data not available.

SMILES	% GABA Example
CC(=O)Nc1c(C(=O)C(C)(C)C)oc2nc(-c3ccc(-c4cn[nH]c4)cc3Cl)c(-c3ccc(Cl)cc3)cc12 [Example 4, N-[5-(4-Chlorophenyl)-6-[2-chloro-4-(1H-pyrazol-4-yl)phenyl]-2-(2,2-dimethylpropanoyl)furo[2,3-b]pyridin-3-yl]acetamide]	12%
CCC(=O)c1oc2nc(-c3ccc(-c4cn[nH]c4)cc3Cl)c(-c3ccc(Cl)cc3)cc2c1NC(C)=O [Example 5, N-{5-(4-Chlorophenyl)-6-[2-chloro-4-(1H-pyrazol-4-yl)phenyl]-2-propionylfuro[2,3-b]pyridin-3-yl}acetamide]	11%
CC(C)C(=O)Nc1c(C(=O)C(C)(C)C)oc2nc(-c3ccc(-c4cn[nH]c4)cc3Cl)c(-c3ccc(Cl)cc3)cc12 [Example 6, N-[5-(4-Chlorophenyl)-6-[2-chloro-4-(1H-pyrazol-4-yl)phenyl]-2-(2,2-dimethylpropanoyl)furo[2,3-b]pyridin-3-yl]-2-methylpropanamide]	3%
CCC(=O)c1oc2nc(-c3ccc(-c4cn[nH]c4)cc3Cl)c(-c3ccc(Cl)cc3)cc2c1N [Example 8, 1-{3-Amino-5-(4-chlorophenyl)-6-[2-chloro-4-(1H-pyrazol-4-yl)phenyl]furo[2,3-b]pyridin-2-yl}propan-1-one]	26%
Cc1c(C(=O)C(C)(C)O)oc2nc(-c3ccc(-c4cn[nH]c4)cc3Cl)c(-c3ccc(Cl)cc3)cc12 [Example 9, 1-{5-(4-Chlorophenyl)-6-[2-chloro-4-(1H-pyrazol-4-yl)phenyl]-3-methylfuro[2,3-b]pyridin-2-yl}-2-hydroxy-2-methylpropan-1-one]	30%
Cc1c(C(=O)C(C)(C)C)oc2nc(-c3ccc(-c4cn[nH]c4)cc3Cl)c(-c3ccc(Cl)cc3)cc12 [Example 10, 1-{5-(4-Chlorophenyl)-6-[2-chloro-4-(1H-pyrazol-4-yl)phenyl]-3-methylfuro[2,3-b]pyridin-2-yl}-2,2-dimethylpropan-1-one]	9%
Cc1c(C(=O)CC(C)C)oc2nc(-c3ccc(-c4cn[nH]c4)cc3Cl)c(-c3ccc(Cl)cc3)cc12 [Example 12, 1-{5-(4-Chlorophenyl)-6-[2-chloro-4-(1H-pyrazol-4-yl)phenyl]-3-methylfuro[2,3-b]pyridin-2-yl}-3-methylbutan-1-one]	51%
CCC(=O)c1oc2nc(-c3ccc(-c4cn[nH]c4)cc3Cl)c(-c3ccc(Cl)cc3)cc2c1NC(=O)C(C)(C)O [Example 13, N-{5-(4-Chlorophenyl)-6-[2-chloro-4-(1H-pyrazol-4-yl)phenyl]-2-propionylfuro[2,3-b]pyridin-3-yl}-2-hydroxy-2-methylpropanamide]	15%
C[C@H](O)C(=O)Nc1c(C(=O)C(C)(C)C)oc2nc(-c3ccc(-c4cn[nH]c4)cc3Cl)c(-c3ccc(Cl)cc3)cc12 [Example 14, (2S)-N-[5-(4-Chlorophenyl)-6-[2-chloro-4-(1H-pyrazol-4-yl)phenyl]-2-(2,2-dimethylpropanoyl)furo[2,3-b]pyridin-3-yl]-2-hydroxypropanamide]	13%
CCC(=O)c1oc2nc(-c3ccc(-c4cn[nH]c4)cc3Cl)c(-c3ccc(Cl)cc3)cc2c1NC(=O)[C@H](C)O [Example 15, (2S)-N-{5-(4-Chlorophenyl)-6-[2-chloro-4-(1H-pyrazol-4-yl)phenyl]-2-propionylfuro[2,3-b]pyridin-3-yl}-2-hydroxypropanamide]	13%
CC(C)(C)C(=O)c1oc2nc(-c3ccc(-c4cn[nH]c4)cc3Cl)c(-c3ccc(Cl)cc3)cc2c1NC(=O)C(C)(C)O [Example 16, N-[5-(4-Chlorophenyl)-6-[2-chloro-4-(1H-pyrazol-4-yl)phenyl]-2-(2,2-dimethylpropanoyl)furo[2,3-b]pyridin-3-yl]-2-hydroxy-2-methylpropanamide]	11%
CCC(=O)c1oc2nc(-c3ccc(-c4cn[nH]c4)cc3Cl)c(-c3ccc(Cl)cc3)cc2c1NC(=O)CO [Example 17, N-{5-(4-Chlorophenyl)-6-[2-chloro-4-(1H-pyrazol-4-yl)phenyl]-2-propionylfuro[2,3-b]pyridin-3-yl}-2-hydroxyacetamidetrifluoroacetate (salt)]	36%
CC(=O)Nc1c(C(=O)C(C)(C)O)oc2nc(-c3ccc(-c4cc[nH]n4)cc3Cl)c(-c3ccc(Cl)cc3)cc12 [Example 18, N-[5-(4-Chlorophenyl)-6-[2-chloro-4-(1H-pyrazol-3-yl)phenyl]-2-(2-hydroxy-2-methylpropanoyl)furo[2,3-b]pyridin-3-yl]acetamide]	26%
CC(=O)Nc1c(C(=O)C(C)(C)C)oc2nc(-c3ccc(-c4cc[nH]n4)cc3Cl)c(-c3ccc(Cl)cc3)cc12 [Example 19, N-[5-(4-Chlorophenyl)-6-[2-chloro-4-(1H-pyrazol-3-yl)phenyl]-2-(2,2-dimethylpropanoyl)furo[2,3-b]pyridin-3-yl]acetamide]	16%
CC(C)(C)C(=O)c1oc2nc(-c3ccc(-c4cc[nH]n4)cc3Cl)c(-c3ccc(Cl)cc3)cc2c1C(N)=O [Example 20, 5-(4-Chlorophenyl)-6-[2-chloro-4-(1H-pyrazol-3-yl)phenyl]-2-(2,2-dimethylpropanoyl)furo[2,3-b]pyridine-3-carboxamide]	13%
CC(C)(O)C(=O)c1oc2nc(-c3ccc(-c4cc[nH]n4)cc3Cl)c(-c3ccc(Cl)cc3)cc2c1N [Example 21, 1-{3-Amino-5-(4-chlorophenyl)-6-[2-chloro-4-(1H-pyrazol-3-yl)phenyl]furo-[2,3-b]pyridin-2-yl}-2-hydroxy-2-methylpropan-1-one]	27%
CC(C)C(=O)c1oc2nc(-c3ccc(-c4cc[nH]n4)cc3Cl)c(-c3ccc(Cl)cc3)cc2c1N [Example 22, 1-{3-Amino-5-(4-chlorophenyl)-6-[2-chloro-4-(1H-pyrazol-3-yl)phenyl]furo-[2,3-b]pyridin-2-yl}-2-methylpropan-1-one]	18%
Cc1c(C(=O)C(C)(C)O)oc2nc(-c3ccc(-c4cc[nH]n4)cc3Cl)c(-c3ccc(Cl)cc3)cc12 [Example 23, 1-{5-(4-Chlorophenyl)-6-[2-chloro-4-(1H-pyrazol-3-yl)phenyl]-3-methylfuro[2,3-b]pyridin-2-yl}-2-hydroxy-2-methylpropan-1-one]	24%
Cc1c(S(=O)(=O)C(C)(C)C)oc2nc(-c3ccc(-c4cc[nH]n4)cc3Cl)c(-c3ccc(Cl)cc3)cc12 [Example 24, 2-(Tert-butylsulfonyl)-5-(4-chlorophenyl)-6-[2-chloro-4-(1H-pyrazol-3-yl)phenyl]-3-methylfuro[2,3-b]pyridine]	13%
Cc1c(C(=O)C(C)C)oc2nc(-c3ccc(-c4cc[nH]n4)cc3Cl)c(-c3ccc(Cl)cc3)cc12 [Example 25, 1-{5-(4-Chlorophenyl)-6-[2-chloro-4-(1H-pyrazol-3-yl)phenyl]-3-methylfuro[2,3-b]pyridin-2-yl}-2-methylpropan-1-one]	35%
CCC(=O)c1oc2nc(-c3ccc(-c4cc[nH]n4)cc3Cl)c(-c3ccc(Cl)cc3)cc2c1C [Example 26, 1-{5-(4-Chlorophenyl)-6-[2-chloro-4-(1H-pyrazol-3-yl)phenyl]-3-methylfuro[2,3-b]pyridin-2-yl}propan-1-one]	28%
CC(C)(C)C(=O)c1oc2nc(-c3ccc(-c4cc[nH]n4)cc3Cl)c(-c3ccc(Cl)cc3)cc2c1NC(=O)CO [Example 27, N-[5-(4-Chlorophenyl)-6-[2-chloro-4-(3H-pyrazol-5-yl)phenyl]-2-(2,2-dimethyl-propanoyl)furo[2,3-b]pyridin-3-yl]-2-hydroxyacetamide]	29%
CC(C)C(=O)c1oc2nc(-c3ccc(-c4cc[nH]n4)cc3Cl)c(-c3ccc(Cl)cc3)cc2c1N1CCCC1=O [Example 28, 1-{5-(4-Chlorophenyl)-6-[2-chloro-4-(1H-pyrazol-3-yl)phenyl]-2-isobutyrylfuro[2,3-b]pyridin-3-yl}pyrrolidin-2-one]	16%
CNC(=O)c1c(C(=O)C(C)(C)C)oc2nc(-c3ccc(-c4cc[nH]n4)cc3Cl)c(-c3ccc(Cl)cc3)cc12 [Example 29, 5-(4-Chlorophenyl)-6-[2-chloro-4-(1H-pyrazol-3-yl)phenyl]-2-(2,2-dimethylpropanoyl)-N-methylfuro[2,3-b]pyridine-3-carboxamide]	20%
CC(=O)n1cc(-c2ccc(-c3nc4oc(C(=O)C(C)(C)O)c(N)c4cc3-c3ccc(Cl)cc3)c(Cl)c2)cn1 [Example 30, 1-[6-[4-(1-Acetyl-1H-pirazol-4-yl)-2-chlorophenyl]-3-amino-5-(4-chlorophenyl)furo[2,3-b]pyridin-2-yl]-2-hydroxy-2-methylpropan-1-one]	19%
CC(C)(O)C(=O)c1oc2nc(-c3ccc(-c4cn[nH]c4)cc3Cl)c(-c3ccc(Cl)cc3)cc2c1NC(=O)CO [Example 31, N-[5-(4-Chlorophenyl)-6-[2-chloro-4-(1H-pyrazol-4-yl)phenyl]-2-(2-hydroxy-2-methylpropanoyl)-furo[2,3-b]pyridin-3-yl]-2-hydroxyacetamide]	30%
